Data: the kinase profiling compilation of Christmann-Franck et al. (2016)
One block for each molecule: values may come before it.

Columns and labels:
PIM1 (human) [1] = biological target: PIM1 (human) (UniProt P11309); assay: SelectScreen, TR FRET
PIM2 (human) [2] = biological target: PIM2 (human) (UniProt Q9P1W9); assay: SelectScreen, TR FRET
RPS6KA1 KD2 (human) = RPS6KA1 KD2 (human) (UniProt Q15418); assay: KINOMEscan competition binding; conditions: compound 10.0 µM
PIM3 (human) = PIM3 (human) (UniProt Q86V86); assay: KINOMEscan competition binding; conditions: compound 10.0 µM
MKNK2 (human) = MKNK2 (human) (UniProt Q9HBH9); assay: KINOMEscan competition binding; conditions: compound 10.0 µM
STK24 (human) = STK24 (human) (UniProt Q9Y6E0); assay: KINOMEscan competition binding; conditions: compound 10.0 µM
TLK1 (human) = TLK1 (human) (UniProt Q9UKI8); assay: KINOMEscan competition binding; conditions: compound 10.0 µM
CDC42BPB (human) = CDC42BPB (human) (UniProt Q9Y5S2); assay: KINOMEscan competition binding; conditions: compound 10.0 µM
PIM1 (human) [3] = biological target: PIM1 (human) (UniProt P11309); assay: KINOMEscan competition binding; conditions: compound 10.0 µM
RPS6KA6 KD2 (human) = RPS6KA6 KD2 (human) (UniProt Q9UK32); assay: KINOMEscan competition binding; conditions: compound 10.0 µM
MAPK8 (human) = MAPK8 (human) (UniProt P45983); assay: KINOMEscan competition binding; conditions: compound 10.0 µM
DDR1 (human) = DDR1 (human) (UniProt Q08345); assay: KINOMEscan competition binding; conditions: compound 10.0 µM
CSNK2A1 (human) = CSNK2A1 (human) (UniProt P68400); assay: KINOMEscan competition binding; conditions: compound 10.0 µM
RPS6KA2 KD2 (human) = RPS6KA2 KD2 (human) (UniProt Q15349); assay: KINOMEscan competition binding; conditions: compound 10.0 µM
CSNK2A2 (human) = CSNK2A2 (human) (UniProt P19784); assay: KINOMEscan competition binding; conditions: compound 10.0 µM
STK17B (human) = STK17B (human) (UniProt O94768); assay: KINOMEscan competition binding; conditions: compound 10.0 µM
PIM2 (human) [4] = biological target: PIM2 (human) (UniProt Q9P1W9); assay: KINOMEscan competition binding; conditions: compound 10.0 µM
MAP2K3 (human) = MAP2K3 (human) (UniProt P46734); assay: KINOMEscan competition binding; conditions: compound 10.0 µM
TAOK1 (human) = TAOK1 (human) (UniProt Q7L7X3); assay: KINOMEscan competition binding; conditions: compound 10.0 µM
BTK (human) = BTK (human) (UniProt Q06187); assay: KINOMEscan competition binding; conditions: compound 10.0 µM
DAPK1 (human) = DAPK1 (human) (UniProt P53355); assay: KINOMEscan competition binding; conditions: compound 10.0 µM
PLK4 (human) = PLK4 (human) (UniProt O00444); assay: KINOMEscan competition binding; conditions: compound 10.0 µM
DAPK2 (human) = DAPK2 (human) (UniProt Q9UIK4); assay: KINOMEscan competition binding; conditions: compound 10.0 µM
MAPK12 (human) = MAPK12 (human) (UniProt P53778); assay: KINOMEscan competition binding; conditions: compound 10.0 µM
DAPK3 (human) = DAPK3 (human) (UniProt O43293); assay: KINOMEscan competition binding; conditions: compound 10.0 µM
PIK3C2B (human) = PIK3C2B (human) (UniProt O00750); assay: KINOMEscan competition binding; conditions: compound 10.0 µM
RPS6KA4 KD2 (human) = RPS6KA4 KD2 (human) (UniProt O75676); assay: KINOMEscan competition binding; conditions: compound 10.0 µM
PIK3CD (human) = PIK3CD (human) (UniProt O00329); assay: KINOMEscan competition binding; conditions: compound 10.0 µM
PIK3CA (human) = PIK3CA (human) (UniProt P42336); assay: KINOMEscan competition binding; conditions: compound 10.0 µM
LATS2 (human) = LATS2 (human) (UniProt Q9NRM7); assay: KINOMEscan competition binding; conditions: compound 10.0 µM
[5] = system: PIK3CA (human), P42336 [E545K]; assay: KINOMEscan competition binding; conditions: compound 10.0 µM
AAK1 (human) = AAK1 (human) (UniProt Q2M2I8); assay: KINOMEscan competition binding; conditions: compound 10.0 µM
PIK3CG (human) = PIK3CG (human) (UniProt P48736); assay: KINOMEscan competition binding; conditions: compound 10.0 µM
MINK1 (human) = MINK1 (human) (UniProt Q8N4C8); assay: KINOMEscan competition binding; conditions: compound 10.0 µM
PIK3CB (human) = PIK3CB (human) (UniProt P42338); assay: KINOMEscan competition binding; conditions: compound 10.0 µM
CDK16 (human) = CDK16 (human) (UniProt Q00536); assay: KINOMEscan competition binding; conditions: compound 10.0 µM
HIPK1 (human) = HIPK1 (human) (UniProt Q86Z02); assay: KINOMEscan competition binding; conditions: compound 10.0 µM
CDK7 (human) = CDK7 (human) (UniProt P50613); assay: KINOMEscan competition binding; conditions: compound 10.0 µM
Sequence of CDK7 (human) (P50613 whole entry, looked up): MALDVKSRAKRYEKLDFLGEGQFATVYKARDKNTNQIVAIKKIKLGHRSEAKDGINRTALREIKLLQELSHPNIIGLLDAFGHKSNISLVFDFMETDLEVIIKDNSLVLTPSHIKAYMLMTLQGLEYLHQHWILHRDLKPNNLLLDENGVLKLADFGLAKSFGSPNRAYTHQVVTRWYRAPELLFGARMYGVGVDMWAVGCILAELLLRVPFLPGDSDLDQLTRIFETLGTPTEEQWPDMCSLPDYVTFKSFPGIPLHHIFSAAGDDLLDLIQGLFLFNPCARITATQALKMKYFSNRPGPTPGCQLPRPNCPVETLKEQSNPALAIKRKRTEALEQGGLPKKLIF

Sequence of PIM1 (human) (P11309 whole entry, looked up): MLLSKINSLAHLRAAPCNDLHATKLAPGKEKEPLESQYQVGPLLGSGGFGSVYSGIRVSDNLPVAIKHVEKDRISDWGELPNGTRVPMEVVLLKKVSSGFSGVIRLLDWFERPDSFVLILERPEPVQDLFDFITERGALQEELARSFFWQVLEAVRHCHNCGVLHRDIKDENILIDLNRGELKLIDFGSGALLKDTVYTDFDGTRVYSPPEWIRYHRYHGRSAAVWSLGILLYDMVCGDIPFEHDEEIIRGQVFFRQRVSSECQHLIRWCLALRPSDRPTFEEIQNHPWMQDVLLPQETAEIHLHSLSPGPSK
Sequence of PIM2 (human) (Q9P1W9 whole entry, looked up): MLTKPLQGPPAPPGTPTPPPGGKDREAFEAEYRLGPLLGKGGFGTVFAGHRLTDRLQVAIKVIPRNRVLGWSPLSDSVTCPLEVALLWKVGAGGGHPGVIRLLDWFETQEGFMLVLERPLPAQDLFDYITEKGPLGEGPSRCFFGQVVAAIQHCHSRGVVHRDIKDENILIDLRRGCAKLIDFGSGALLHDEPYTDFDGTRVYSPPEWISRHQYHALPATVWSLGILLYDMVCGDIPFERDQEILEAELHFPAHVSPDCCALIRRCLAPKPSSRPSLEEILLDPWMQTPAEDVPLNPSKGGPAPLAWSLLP
Sequence of STK17B (human) (O94768 whole entry, looked up): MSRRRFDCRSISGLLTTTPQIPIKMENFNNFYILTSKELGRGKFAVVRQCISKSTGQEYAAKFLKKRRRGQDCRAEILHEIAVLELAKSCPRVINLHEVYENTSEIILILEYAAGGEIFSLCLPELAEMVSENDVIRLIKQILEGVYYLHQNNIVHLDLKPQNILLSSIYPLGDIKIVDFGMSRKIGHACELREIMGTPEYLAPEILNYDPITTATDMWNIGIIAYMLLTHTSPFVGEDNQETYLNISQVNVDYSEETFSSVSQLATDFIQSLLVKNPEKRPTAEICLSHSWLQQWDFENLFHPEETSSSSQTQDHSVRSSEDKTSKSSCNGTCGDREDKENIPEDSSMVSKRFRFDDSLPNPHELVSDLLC
Sequence of CSNK2A2 (human) (P19784 whole entry, looked up): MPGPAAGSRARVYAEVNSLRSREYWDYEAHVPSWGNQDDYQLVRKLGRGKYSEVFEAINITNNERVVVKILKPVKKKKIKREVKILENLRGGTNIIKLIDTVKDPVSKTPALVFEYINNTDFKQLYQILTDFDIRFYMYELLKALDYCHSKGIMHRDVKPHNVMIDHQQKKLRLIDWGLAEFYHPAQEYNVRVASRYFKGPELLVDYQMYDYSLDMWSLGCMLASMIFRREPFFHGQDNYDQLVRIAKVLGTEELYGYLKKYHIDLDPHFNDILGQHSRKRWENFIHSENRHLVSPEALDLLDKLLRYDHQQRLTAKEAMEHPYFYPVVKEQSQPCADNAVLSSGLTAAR
Sequence of CSNK2A1 (human) (P68400 whole entry, looked up): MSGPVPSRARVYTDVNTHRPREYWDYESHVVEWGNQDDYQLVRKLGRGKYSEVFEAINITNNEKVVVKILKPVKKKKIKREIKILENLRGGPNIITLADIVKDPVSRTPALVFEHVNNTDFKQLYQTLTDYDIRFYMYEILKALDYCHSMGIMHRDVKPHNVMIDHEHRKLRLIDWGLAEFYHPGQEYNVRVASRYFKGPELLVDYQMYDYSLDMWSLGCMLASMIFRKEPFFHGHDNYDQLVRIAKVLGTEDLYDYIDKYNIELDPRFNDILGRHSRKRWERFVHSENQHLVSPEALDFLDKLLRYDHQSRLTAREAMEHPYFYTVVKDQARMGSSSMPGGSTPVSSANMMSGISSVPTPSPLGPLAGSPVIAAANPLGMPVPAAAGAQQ
Sequence of MAPK8 (human) (P45983 whole entry, looked up): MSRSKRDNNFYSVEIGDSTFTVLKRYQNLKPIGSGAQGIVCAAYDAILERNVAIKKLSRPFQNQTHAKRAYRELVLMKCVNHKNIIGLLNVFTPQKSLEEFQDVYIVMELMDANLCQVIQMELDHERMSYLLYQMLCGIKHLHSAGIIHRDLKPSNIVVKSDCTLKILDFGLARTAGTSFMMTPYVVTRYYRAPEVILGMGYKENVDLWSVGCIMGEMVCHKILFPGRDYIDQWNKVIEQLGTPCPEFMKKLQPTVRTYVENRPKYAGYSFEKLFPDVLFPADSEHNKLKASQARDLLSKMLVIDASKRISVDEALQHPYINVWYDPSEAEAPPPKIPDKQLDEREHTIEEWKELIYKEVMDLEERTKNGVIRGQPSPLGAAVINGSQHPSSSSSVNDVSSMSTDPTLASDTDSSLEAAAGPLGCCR
Sequence of HIPK1 (human) (Q86Z02 whole entry, looked up): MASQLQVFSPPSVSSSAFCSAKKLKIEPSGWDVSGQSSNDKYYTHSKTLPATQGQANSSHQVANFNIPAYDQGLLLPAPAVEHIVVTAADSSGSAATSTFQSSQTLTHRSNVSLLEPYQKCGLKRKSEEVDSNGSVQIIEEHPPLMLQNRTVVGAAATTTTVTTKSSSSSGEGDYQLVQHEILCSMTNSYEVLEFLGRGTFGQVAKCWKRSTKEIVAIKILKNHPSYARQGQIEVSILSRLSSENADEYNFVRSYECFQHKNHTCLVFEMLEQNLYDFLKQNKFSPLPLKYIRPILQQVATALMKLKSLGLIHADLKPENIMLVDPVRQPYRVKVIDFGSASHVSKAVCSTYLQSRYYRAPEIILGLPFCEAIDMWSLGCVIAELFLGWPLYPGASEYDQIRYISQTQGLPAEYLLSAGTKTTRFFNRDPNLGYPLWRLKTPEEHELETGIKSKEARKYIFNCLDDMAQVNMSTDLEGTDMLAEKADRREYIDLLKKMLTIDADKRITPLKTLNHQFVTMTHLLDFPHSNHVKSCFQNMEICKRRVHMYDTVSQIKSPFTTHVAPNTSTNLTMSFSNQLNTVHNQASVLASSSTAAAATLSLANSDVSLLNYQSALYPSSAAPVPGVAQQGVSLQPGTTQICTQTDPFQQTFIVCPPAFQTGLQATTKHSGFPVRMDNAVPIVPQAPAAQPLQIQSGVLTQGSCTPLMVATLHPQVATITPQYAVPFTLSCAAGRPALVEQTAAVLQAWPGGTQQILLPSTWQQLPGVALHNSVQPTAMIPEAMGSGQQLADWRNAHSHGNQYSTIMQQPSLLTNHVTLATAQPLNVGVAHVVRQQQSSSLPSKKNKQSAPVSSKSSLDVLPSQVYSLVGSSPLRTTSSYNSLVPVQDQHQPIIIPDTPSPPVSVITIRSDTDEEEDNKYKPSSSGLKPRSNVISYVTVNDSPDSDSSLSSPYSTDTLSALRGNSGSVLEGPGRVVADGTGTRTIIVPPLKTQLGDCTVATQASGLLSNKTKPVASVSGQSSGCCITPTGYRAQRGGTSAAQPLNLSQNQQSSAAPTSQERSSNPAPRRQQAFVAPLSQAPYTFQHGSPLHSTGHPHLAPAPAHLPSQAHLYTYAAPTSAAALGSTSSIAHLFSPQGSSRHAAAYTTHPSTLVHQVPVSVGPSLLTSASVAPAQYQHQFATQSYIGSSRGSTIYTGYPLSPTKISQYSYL
Sequence of DAPK3 (human) (O43293 whole entry, looked up): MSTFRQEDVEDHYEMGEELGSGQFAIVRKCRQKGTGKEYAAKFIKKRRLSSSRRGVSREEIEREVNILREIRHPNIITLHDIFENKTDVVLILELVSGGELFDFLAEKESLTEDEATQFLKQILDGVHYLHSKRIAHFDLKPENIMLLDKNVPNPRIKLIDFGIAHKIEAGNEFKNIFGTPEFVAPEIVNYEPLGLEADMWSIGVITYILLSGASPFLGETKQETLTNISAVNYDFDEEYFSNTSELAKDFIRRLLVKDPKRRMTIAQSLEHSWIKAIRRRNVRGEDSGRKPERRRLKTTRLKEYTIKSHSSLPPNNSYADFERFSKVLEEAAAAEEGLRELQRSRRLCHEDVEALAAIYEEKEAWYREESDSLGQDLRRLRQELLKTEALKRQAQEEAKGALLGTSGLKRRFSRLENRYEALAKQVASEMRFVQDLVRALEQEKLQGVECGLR
Sequence of MAP2K3 (human) (P46734 whole entry, looked up): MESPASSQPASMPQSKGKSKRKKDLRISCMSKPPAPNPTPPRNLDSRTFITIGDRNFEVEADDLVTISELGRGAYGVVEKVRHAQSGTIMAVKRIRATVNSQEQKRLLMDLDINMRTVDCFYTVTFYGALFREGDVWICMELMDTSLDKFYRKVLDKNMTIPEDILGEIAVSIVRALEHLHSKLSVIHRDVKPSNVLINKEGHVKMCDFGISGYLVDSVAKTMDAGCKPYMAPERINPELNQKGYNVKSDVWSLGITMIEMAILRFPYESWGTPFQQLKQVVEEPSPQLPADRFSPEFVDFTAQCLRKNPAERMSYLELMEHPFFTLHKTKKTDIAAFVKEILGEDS

IC50 (PIM1 (human) [1]): 9.02 µM | IC50 (PIM2 (human) [2]): 2.91 µM | kinase still bound, per cent of control (RPS6KA1 KD2 (human)): 23% | kinase still bound, per cent of control (PIM3 (human)): 11% | kinase still bound, per cent of control (MKNK2 (human)): 34% | kinase still bound, per cent of control (STK24 (human)): 29% | kinase still bound, per cent of control (TLK1 (human)): 24% | kinase still bound, per cent of control (CDC42BPB (human)): 28% | kinase still bound, per cent of control (PIM1 (human) [3]): 14% | kinase still bound, per cent of control (RPS6KA6 KD2 (human)): 25% | kinase still bound, per cent of control (MAPK8 (human)): 30% | kinase still bound, per cent of control (DDR1 (human)): 21% | kinase still bound, per cent of control (CSNK2A1 (human)): 33% | kinase still bound, per cent of control (RPS6KA2 KD2 (human)): 31% | kinase still bound, per cent of control (CSNK2A2 (human)): 33% | kinase still bound, per cent of control (STK17B (human)): 7.4% | kinase still bound, per cent of control (PIM2 (human) [4]): 0.75%
SMILES: O=C1NC(=O)/C(=C/c2ccc(-c3ccc4c(C(=O)Nc5cccc(C(F)(F)F)c5)cccc4c3)o2)S1

IC50 (PIM1 (human) [1]): 0.215 µM | IC50 (PIM2 (human) [2]): 0.125 µM | kinase still bound, per cent of control (MAP2K3 (human)): 34% | kinase still bound, per cent of control (TAOK1 (human)): 9.6% | kinase still bound, per cent of control (PIM3 (human)): 4.9% | kinase still bound, per cent of control (BTK (human)): 30% | kinase still bound, per cent of control (DAPK1 (human)): 6% | kinase still bound, per cent of control (PLK4 (human)): 21% | kinase still bound, per cent of control (DAPK2 (human)): 6.4% | kinase still bound, per cent of control (MAPK12 (human)): 28% | kinase still bound, per cent of control (DAPK3 (human)): 11% | kinase still bound, per cent of control (PIM1 (human) [3]): 4% | kinase still bound, per cent of control (PIK3C2B (human)): 18% | kinase still bound, per cent of control (RPS6KA4 KD2 (human)): 9.9% | kinase still bound, per cent of control (PIK3CD (human)): 32% | kinase still bound, per cent of control (PIK3CA (human)): 15% | kinase still bound, per cent of control (LATS2 (human)): 8.1% | kinase still bound, per cent of control (CSNK2A1 (human)): 18% | kinase still bound, per cent of control [5]: 20% | kinase still bound, per cent of control (AAK1 (human)): 34% | kinase still bound, per cent of control (PIK3CG (human)): 3.6% | kinase still bound, per cent of control (MINK1 (human)): 1.8% | kinase still bound, per cent of control (PIK3CB (human)): 31% | kinase still bound, per cent of control (CSNK2A2 (human)): 7.9% | kinase still bound, per cent of control (STK17B (human)): 9% | kinase still bound, per cent of control (CDK16 (human)): 19% | kinase still bound, per cent of control (HIPK1 (human)): 2.4% | kinase still bound, per cent of control (CDK7 (human)): 27% | kinase still bound, per cent of control (PIM2 (human) [4]): 0.9%
SMILES: NS(=O)(=O)c1ccc(-c2ccc(/C=C3\SC(=O)NC3=O)o2)cc1
